# According to the supplement of paper PMC12076712:
# ± gives the standard deviation of the averaged measurements.
# Legend:
# Experiment in all cases: pIC50, kinobeads binding competition
# CAMK4 = target: T1, CAMK4 (UniProt Q16566)
# T1 sequence (whole entry): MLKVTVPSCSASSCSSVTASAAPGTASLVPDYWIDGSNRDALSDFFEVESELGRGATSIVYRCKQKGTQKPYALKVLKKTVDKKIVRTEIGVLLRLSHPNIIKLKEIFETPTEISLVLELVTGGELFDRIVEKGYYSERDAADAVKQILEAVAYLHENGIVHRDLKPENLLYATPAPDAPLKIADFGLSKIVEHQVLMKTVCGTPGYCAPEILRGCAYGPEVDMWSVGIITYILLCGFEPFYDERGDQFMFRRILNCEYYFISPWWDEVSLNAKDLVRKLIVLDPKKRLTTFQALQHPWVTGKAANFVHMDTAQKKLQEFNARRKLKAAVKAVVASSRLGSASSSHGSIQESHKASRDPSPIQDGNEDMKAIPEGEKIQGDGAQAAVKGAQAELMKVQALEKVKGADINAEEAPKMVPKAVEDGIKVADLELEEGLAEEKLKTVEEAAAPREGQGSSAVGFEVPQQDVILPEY
# How it was run: (§1)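 To obtain pIC50, fold changes versus vehicle were fitted to logistic dose-response curves (R drc package) across biological duplicates. Protein binding to Kinobeads was quantified by TMT10 LC-MS/MS of digested bead-bound proteins. Treatments used nine concentrations with a top of 30 μM, applied to live Jurkat cells in 1:4 steps for 60 min at 37 °C before lysis, or to Jurkat lysate or a 1:1:1:1 HEK293/K-562/HepG2/placenta lysate mix in 1:5 steps for 60 min at 4 °C.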
# PBK = target: T2, PBK (UniProt Q96KB5); details: cell material: Jurkat cells
# T2 sequence (whole entry): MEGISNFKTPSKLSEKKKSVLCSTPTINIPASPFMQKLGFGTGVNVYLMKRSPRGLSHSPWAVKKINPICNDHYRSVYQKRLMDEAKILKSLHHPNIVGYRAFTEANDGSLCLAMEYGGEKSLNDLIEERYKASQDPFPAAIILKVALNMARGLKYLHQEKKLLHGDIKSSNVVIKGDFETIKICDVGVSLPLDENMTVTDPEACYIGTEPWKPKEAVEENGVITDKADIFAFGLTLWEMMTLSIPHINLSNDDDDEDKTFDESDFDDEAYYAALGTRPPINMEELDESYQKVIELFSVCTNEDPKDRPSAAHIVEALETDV
# How it was run: as §1
# SRPK2 = SRPK2 (UniProt P78362)
# Chain of SRPK2 (P78362 whole entry, looked up): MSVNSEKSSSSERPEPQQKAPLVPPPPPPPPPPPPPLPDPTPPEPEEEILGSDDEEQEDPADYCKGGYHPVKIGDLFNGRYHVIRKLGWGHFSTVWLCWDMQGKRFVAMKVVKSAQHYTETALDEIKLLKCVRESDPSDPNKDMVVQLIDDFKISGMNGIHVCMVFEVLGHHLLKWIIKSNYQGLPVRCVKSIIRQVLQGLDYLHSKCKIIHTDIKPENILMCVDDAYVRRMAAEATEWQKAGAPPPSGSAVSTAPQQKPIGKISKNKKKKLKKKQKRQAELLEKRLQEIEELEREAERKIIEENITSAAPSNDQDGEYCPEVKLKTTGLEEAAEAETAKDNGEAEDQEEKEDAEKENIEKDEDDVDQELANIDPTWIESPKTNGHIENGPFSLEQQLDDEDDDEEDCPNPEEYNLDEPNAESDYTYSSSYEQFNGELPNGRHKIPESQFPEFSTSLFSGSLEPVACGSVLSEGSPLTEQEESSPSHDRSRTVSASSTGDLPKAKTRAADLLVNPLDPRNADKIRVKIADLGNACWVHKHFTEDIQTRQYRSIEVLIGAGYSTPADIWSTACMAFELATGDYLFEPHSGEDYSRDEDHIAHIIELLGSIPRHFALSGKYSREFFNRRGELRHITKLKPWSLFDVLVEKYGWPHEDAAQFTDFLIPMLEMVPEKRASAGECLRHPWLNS
# How it was run: as §1
# UniProt P23443 = target: UniProt P23443
# Chain of UniProt P23443 (P23443 whole entry, looked up): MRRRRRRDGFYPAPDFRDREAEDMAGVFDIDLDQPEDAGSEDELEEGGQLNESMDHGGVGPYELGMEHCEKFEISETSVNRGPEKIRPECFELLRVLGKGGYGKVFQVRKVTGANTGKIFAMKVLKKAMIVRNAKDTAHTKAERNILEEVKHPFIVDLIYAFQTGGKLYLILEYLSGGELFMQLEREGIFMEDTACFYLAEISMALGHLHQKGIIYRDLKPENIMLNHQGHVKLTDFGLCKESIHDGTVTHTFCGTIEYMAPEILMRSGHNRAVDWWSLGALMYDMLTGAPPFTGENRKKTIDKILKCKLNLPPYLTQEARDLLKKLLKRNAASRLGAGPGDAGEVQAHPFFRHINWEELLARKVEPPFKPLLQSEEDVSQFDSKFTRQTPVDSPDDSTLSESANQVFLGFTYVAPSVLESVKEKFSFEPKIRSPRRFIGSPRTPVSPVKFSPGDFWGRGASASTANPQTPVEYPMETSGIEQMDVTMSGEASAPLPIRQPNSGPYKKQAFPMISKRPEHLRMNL
# How it was run: as §1
# SNRK = target: T3, SNRK (UniProt Q9NRH2)
# T3 sequence (whole entry): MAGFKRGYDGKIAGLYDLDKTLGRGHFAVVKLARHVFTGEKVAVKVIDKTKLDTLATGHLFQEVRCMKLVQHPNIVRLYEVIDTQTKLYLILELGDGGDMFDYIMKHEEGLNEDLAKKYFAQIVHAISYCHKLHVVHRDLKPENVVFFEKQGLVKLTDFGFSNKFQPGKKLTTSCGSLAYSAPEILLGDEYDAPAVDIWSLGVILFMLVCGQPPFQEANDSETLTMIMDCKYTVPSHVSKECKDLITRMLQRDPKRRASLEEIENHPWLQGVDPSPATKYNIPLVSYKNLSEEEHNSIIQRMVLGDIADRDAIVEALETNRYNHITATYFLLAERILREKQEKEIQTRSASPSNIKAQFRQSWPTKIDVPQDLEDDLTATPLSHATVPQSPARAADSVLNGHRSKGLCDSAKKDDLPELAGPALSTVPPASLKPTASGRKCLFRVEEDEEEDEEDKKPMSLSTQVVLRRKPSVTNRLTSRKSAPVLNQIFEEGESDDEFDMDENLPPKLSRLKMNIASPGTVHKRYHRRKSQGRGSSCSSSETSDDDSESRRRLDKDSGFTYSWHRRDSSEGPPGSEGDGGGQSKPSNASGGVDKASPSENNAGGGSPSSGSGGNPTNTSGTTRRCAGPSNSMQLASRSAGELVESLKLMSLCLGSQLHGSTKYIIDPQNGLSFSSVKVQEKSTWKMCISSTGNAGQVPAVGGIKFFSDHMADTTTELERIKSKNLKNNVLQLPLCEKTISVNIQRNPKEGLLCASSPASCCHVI
# How it was run: as §1
# NEK9 = target: T4, NEK9 (UniProt Q8TD19); details: cell material: Jurkat lysate
# T4 sequence (whole entry): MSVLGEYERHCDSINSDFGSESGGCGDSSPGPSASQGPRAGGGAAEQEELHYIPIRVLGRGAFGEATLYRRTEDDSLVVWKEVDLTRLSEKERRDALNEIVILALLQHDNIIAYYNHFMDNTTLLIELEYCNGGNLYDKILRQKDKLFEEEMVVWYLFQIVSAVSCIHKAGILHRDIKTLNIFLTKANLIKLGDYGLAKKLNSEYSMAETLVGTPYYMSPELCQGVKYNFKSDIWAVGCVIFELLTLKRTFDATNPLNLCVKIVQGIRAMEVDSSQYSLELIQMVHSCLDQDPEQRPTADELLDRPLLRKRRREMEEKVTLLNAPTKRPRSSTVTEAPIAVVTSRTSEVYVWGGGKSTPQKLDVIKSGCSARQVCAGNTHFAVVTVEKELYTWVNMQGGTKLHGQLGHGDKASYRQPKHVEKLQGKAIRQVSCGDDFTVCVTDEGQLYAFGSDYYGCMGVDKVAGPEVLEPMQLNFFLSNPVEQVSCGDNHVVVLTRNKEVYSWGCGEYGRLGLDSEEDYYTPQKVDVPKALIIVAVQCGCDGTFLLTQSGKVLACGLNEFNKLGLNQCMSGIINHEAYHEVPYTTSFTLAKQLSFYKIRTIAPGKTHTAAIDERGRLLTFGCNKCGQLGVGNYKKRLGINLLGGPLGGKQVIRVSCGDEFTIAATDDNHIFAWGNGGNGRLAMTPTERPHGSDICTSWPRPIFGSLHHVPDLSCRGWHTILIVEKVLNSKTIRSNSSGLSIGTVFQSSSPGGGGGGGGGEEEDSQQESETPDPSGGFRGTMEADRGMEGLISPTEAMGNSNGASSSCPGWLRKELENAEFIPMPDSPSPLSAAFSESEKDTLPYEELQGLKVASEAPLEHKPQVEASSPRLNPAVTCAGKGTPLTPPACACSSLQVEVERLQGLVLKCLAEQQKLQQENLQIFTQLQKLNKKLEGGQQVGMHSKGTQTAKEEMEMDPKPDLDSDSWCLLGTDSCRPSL
# STK39 = STK39 (UniProt Q9UEW8); details: cell material: Jurkat lysate
# PRKCB = PRKCB (UniProt P05771); details: cell material: Jurkat lysate
# Chain of PRKCB (P05771 whole entry, looked up): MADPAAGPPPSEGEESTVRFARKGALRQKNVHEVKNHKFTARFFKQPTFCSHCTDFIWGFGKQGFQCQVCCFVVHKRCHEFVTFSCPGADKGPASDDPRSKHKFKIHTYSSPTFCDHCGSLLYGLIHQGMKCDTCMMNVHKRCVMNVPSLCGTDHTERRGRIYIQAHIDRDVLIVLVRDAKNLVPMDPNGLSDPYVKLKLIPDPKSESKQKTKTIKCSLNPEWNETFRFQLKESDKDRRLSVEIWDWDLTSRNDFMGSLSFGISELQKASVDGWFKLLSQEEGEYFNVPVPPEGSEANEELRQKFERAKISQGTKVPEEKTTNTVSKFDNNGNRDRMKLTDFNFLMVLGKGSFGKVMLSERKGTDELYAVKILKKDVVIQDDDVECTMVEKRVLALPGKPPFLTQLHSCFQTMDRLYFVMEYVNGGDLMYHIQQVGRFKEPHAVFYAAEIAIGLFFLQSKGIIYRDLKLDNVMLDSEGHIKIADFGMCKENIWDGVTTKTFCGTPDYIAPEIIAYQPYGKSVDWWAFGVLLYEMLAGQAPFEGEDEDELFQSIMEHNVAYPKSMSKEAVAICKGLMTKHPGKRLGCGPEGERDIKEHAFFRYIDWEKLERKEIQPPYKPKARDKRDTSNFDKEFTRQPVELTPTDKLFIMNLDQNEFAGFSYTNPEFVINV
Compound,pIC50 (CAMK4; cell material: Jurkat cells),pIC50 (PBK),pIC50 (SRPK2; cell material: Jurkat cells),pIC50 (SRPK2; cell material: Jurkat lysate),pIC50 (UniProt P23443; cell material: Jurkat cells),pIC50 (UniProt P23443; cell material: Jurkat lysate),pIC50 (SNRK; cell material: Jurkat cells),pIC50 (SNRK; cell material: Jurkat lysate),pIC50 (CAMK4; cell material: Jurkat lysate),pIC50 (NEK9),pIC50 (STK39),pIC50 (PRKCB)
C#CCNC(=O)c1cc(Nc2cc(C3CC3)[nH]n2)nc(N2CCN(Cc3ccc(S(=O)(=O)F)cc3)CC2)n1,5.09,< 4.52,< 4.52,< 4.52,5.19,< 4.52,5.47,< 4.52,,,,
O=C(NCCNC(=O)c1cc(Nc2cc(C3CC3)[nH]n2)nc(N2CCN(Cc3ccc(S(=O)(=O)F)cc3)CC2)n1)OC1CC/C=C/CCC1 (stereo not drawn),< 4.52,< 4.52,< 4.52,< 4.52,,< 4.52,,< 4.52,< 4.52,,,
CCc1cnn2c(NCc3ccc[n+]([O-])c3)cc(N3CCCC[C@H]3CCO)nc12 [dinaciclib],,,,,,,,,,< 4.52,5.015 ± 0.021,< 4.52
